Measurements taken from PMC6536371 (Chemical biology & drug design, 2018).

Target: MT1-MMP (Homo sapiens, UniProt P50281)
Test: FRET triple-helical peptide
Format: biochemical

Work on CNC(=O)[C@@H](NC(=O)[C@H](CC(C)C)[C@H](O)C(=O)NO)C(C)(C)C [marimastat] yielded an IC50 of 19 ± 3 nM.
